Measured values reported in patent US6770596B1, “Fused tricyclic compounds, process for their preparation, and herbicidal compositions containing them” (Ishihara Sangyo Kaisha Ltd., priority 2002, dated 2004).

What was measured:
Type in all cases: in vivo
[1] = test system: velvetleaf (Abutilon theophrasti, ABT); experiment: Pre-emerge test, velvetleaf; details: 250 g ai/ha, 14 days after application, rating scale 0-100 (0 no damage, 100 complete death)
Method in brief: (§1)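 Read-out is a visual 0–100 phytotoxicity rating taken 14 days after treatment, where 100 means all plants dead. Compounds were applied pre-emergence in acetone by track sprayer at rates from 8 to 1000 g ai/ha onto pots sown the previous day.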

[2] = test system: sicklepod (Cassia obtusifolia, CAO); experiment: Pre-emerge test, sicklepod; details: 250 g ai/ha, 14 days after application, rating scale 0-100 (0 no damage, 100 complete death)
Method in brief: as §1

[3] = test system: soybean (Glycine max L., var. Pella 86, SOY); experiment: Pre-emerge test, crop damage soybean
Method in brief: (§2)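 Scores at 14 days after treatment use a 0–100 scale, where 0 is no damage and 100 is death of all plants. Treatments were acetone solutions sprayed at 8–1000 g ai/ha onto soil sown one day prior.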

[4] = test system: common ragweed (Ambrosia artemisiifolia L., AML); experiment: Pre-emerge test, common ragweed; details: 250 g ai/ha, 14 days after application, rating scale 0-100 (0 no damage, 100 complete death)
Method in brief: as §1

[5] = test system: johnsongrass (Sorghum halepense, SOH); experiment: Pre-emerge test, johnsongrass; details: 250 g ai/ha, 14 days after application, rating scale 0-100 (0 no damage, 100 complete death)
Method in brief: as §1

[6] = test system: ivyleaf morningglory (Ipomoea hederacea, IPH); experiment: Pre-emerge test, ivyleaf morningglory; details: 250 g ai/ha, 14 days after application, rating scale 0-100 (0 no damage, 100 complete death)
Method in brief: as §1

[7] = test system: large crabgrass (Digitaria sanguinalis, DIS); experiment: Post-emerge test, large crabgrass; details: 250 g ai/ha, 14 days after application, rating scale 0-100 (0 no damage, 100 complete death)
Method in brief: (§3)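 Seeds were planted in 10 cm pots of sandy loam soil mix 8-21 days ahead. Once the plants reached the 2-3 leaf stage, the compound was sprayed at 8-1000 g ai/ha (acetone, 187 l/ha, 0.25% v/v non-ionic surfactant). Damage was rated 0-100 after 14 days.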

[8] = test system: lambsquarters (Chenopodium album, CHA); experiment: Post-emerge test, lambsquarters; details: 250 g ai/ha, 14 days after application, rating scale 0-100 (0 no damage, 100 complete death)
Method in brief: as §3

[9] = test system: soybean (Glycine max L., var. Pella 86, SOY); experiment: Post-emerge test, crop damage soybean
Method in brief: as §3

[10] = test system: barnyardgrass (Echinachloa crus-galli, ECC); experiment: Pre-emerge test, barnyardgrass; details: 250 g ai/ha, 14 days after application, rating scale 0-100 (0 no damage, 100 complete death)
Method in brief: as §1

[11] = test system: large crabgrass (Digitaria sanguinalis, DIS); experiment: Pre-emerge test, large crabgrass; details: 250 g ai/ha, 14 days after application, rating scale 0-100 (0 no damage, 100 complete death)
Method in brief: as §1

[12] = test system: wheat (Triticum aestivum); experiment: Post-emerge test, crop damage wheat
Method in brief: as §3

[13] = test system: upland rice (Oryza sp., var.Tebonnet, RICE); experiment: Post-emerge test, crop damage upland rice
Method in brief: as §3

[14] = test system: upland rice (Oryza sp., var.Tebonnet, RICE); experiment: Pre-emerge test, crop damage upland rice
Method in brief: as §2

[15] = test system: redroot pigweed (Amaranthus retroflexus, AMR); experiment: Post-emerge test, redroot pigweed; details: 250 g ai/ha, 14 days after application, rating scale 0-100 (0 no damage, 100 complete death)
Method in brief: as §3

[16] = test system: common ragweed (Ambrosia artemisiifolia L., AML); experiment: Post-emerge test, common ragweed; details: 250 g ai/ha, 14 days after application, rating scale 0-100 (0 no damage, 100 complete death)
Method in brief: as §3

[17] = test system: barnyardgrass (Echinachloa crus-galli, ECC); experiment: Post-emerge test, barnyardgrass; details: 250 g ai/ha, 14 days after application, rating scale 0-100 (0 no damage, 100 complete death)
Method in brief: as §3

[18] = test system: sicklepod (Cassia obtusifolia, CAO); experiment: Post-emerge test, sicklepod; details: 250 g ai/ha, 14 days after application, rating scale 0-100 (0 no damage, 100 complete death)
Method in brief: as §3

[19] = test system: green foxtail (Setaria viridis, SEV); experiment: Post-emerge test, green foxtail; details: 250 g ai/ha, 14 days after application, rating scale 0-100 (0 no damage, 100 complete death)
Method in brief: as §3

[20] = test system: field corn (Zea mays L., var. Dekalb 535, CORN); experiment: Post-emerge test, crop damage field corn
Method in brief: as §3

[21] = test system: field corn (Zea mays L., var. Dekalb 535, CORN); experiment: Pre-emerge test, crop damage field corn
Method in brief: as §2

[22] = test system: cocklebur (Xanthium strumariunt, XAS); experiment: Post-emerge test, cocklebur; details: 250 g ai/ha, 14 days after application, rating scale 0-100 (0 no damage, 100 complete death)
Method in brief: as §3

[23] = test system: wheat (Triticum aestivum); experiment: Pre-emerge test, crop damage wheat
Method in brief: as §2

[24] = test system: cocklebur (Xanthium strumariunt, XAS); experiment: Pre-emerge test, cocklebur; details: 250 g ai/ha, 14 days after application, rating scale 0-100 (0 no damage, 100 complete death)
Method in brief: as §1

[25] = test system: redroot pigweed (Amaranthus retroflexus, AMR); experiment: Pre-emerge test, redroot pigweed; details: 250 g ai/ha, 14 days after application, rating scale 0-100 (0 no damage, 100 complete death)
Method in brief: as §1

[26] = test system: green foxtail (Setaria viridis, SEV); experiment: Pre-emerge test, green foxtail; details: 250 g ai/ha, 14 days after application, rating scale 0-100 (0 no damage, 100 complete death)
Method in brief: as §1

[27] = test system: lambsquarters (Chenopodium album, CHA); experiment: Pre-emerge test, lambsquarters; details: 250 g ai/ha, 14 days after application, rating scale 0-100 (0 no damage, 100 complete death)
Method in brief: as §1

[28] = test system: johnsongrass (Sorghum halepense, SOH); experiment: Post-emerge test, johnsongrass; details: 250 g ai/ha, 14 days after application, rating scale 0-100 (0 no damage, 100 complete death)
Method in brief: as §3

[29] = test system: ivyleaf morningglory (Ipomoea hederacea, IPH); experiment: Post-emerge test, ivyleaf morningglory; details: 250 g ai/ha, 14 days after application, rating scale 0-100 (0 no damage, 100 complete death)
Method in brief: as §3

[30] = test system: velvetleaf (Abutilon theophrasti, ABT); experiment: Post-emerge test, velvetleaf; details: 250 g ai/ha, 14 days after application, rating scale 0-100 (0 no damage, 100 complete death)
Method in brief: as §3

[31] = var. Pella 86, Glycine max (soybean), in vivo, 14 days
[32] = Triticum aestivum (wheat), in vivo, 14 days
[33] = var. Tebonnet, Oryza sp. (upland rice), in vivo, 14 days
[34] = var. Dekalb 535, Zea mays (field corn), in vivo, 14 days
[35] = pre-emerge, 250 g ai/ha, 14 days after application, rating scale 0-100 (0 no damage, 100 complete death)
[36] = post-emerge, 250 g ai/ha, 14 days after application, rating scale 0-100 (0 no damage, 100 complete death)

| SMILES | Pre-emerge Herbicidal Activity ABT (phytotoxicity rating) [1] | Pre-emerge Herbicidal Activity CAO (phytotoxicity rating) [2] | Pre-emerge Herbicidal Activity AML (phytotoxicity rating) [4] | Pre-emerge Herbicidal Activity SOH (phytotoxicity rating) [5] | Pre-emerge Herbicidal Activity IPH (phytotoxicity rating) [6] | Post-emerge Herbicidal Activity DIS (phytotoxicity rating) [7] | Post-emerge Herbicidal Activity CHA (phytotoxicity rating) [8] | Pre-emerge Herbicidal Activity ECC (phytotoxicity rating) [10] | Pre-emerge Herbicidal Activity DIS (phytotoxicity rating) [11] | Post-emerge Herbicidal Activity AMR (phytotoxicity rating) [15] | Post-emerge Herbicidal Activity AML (phytotoxicity rating) [16] | Post-emerge Herbicidal Activity ECC (phytotoxicity rating) [17] | Post-emerge Herbicidal Activity CAO (phytotoxicity rating) [18] | Post-emerge Herbicidal Activity SEV (phytotoxicity rating) [19] | Post-emerge Herbicidal Activity XAS (phytotoxicity rating) [22] | Pre-emerge Herbicidal Activity XAS (phytotoxicity rating) [24] | Pre-emerge Herbicidal Activity AMR (phytotoxicity rating) [25] | Pre-emerge Herbicidal Activity SEV (phytotoxicity rating) [26] | Pre-emerge Herbicidal Activity CHA (phytotoxicity rating) [27] | Post-emerge Herbicidal Activity SOH (phytotoxicity rating) [28] | other results |
| --- | --- | --- | --- | --- | --- | --- | --- | --- | --- | --- | --- | --- | --- | --- | --- | --- | --- | --- | --- | --- | --- |
| C[C@H]1Oc2cc(F)c(-c3nn(C)c(C(F)(F)F)c3Cl)c3c2N(CC(=O)N3)C1=O [1-48, 8-[4-Chloro-1-methyl-5-(trifluoromethyl)-1H-pyrazol-3-yl]-9-fluoro-2-R-methyl-5H-pyrazino[1,2,3-de]-1,4-benzoxazine-3,6(2H, 7H)-dione] | 100 | 100 | 99 | 100 | 100 | 50 | 100 | 100 | 100 | 100 | 80 | 95 | 65 | 98 | 100 | 60 | 100 | 100 | 100 | 30 | Pre-emerge crop damage SOY (phytotoxicity rating) [3, 31]: 40; Post-emerge crop damage SOY (phytotoxicity rating) [9, 31]: 65; Post-emerge crop damage WHEAT (phytotoxicity rating) [12, 32]: 0; Post-emerge crop damage RICE (phytotoxicity rating) [13, 33]: 60; Pre-emerge crop damage RICE (phytotoxicity rating) [14, 33]: 55; Post-emerge crop damage CORN (phytotoxicity rating) [20, 34]: 10; Pre-emerge crop damage CORN (phytotoxicity rating) [21, 34]: 70; Pre-emerge crop damage WHEAT (phytotoxicity rating) [23, 32]: 25; Post-emerge Herbicidal Activity IPH (phytotoxicity rating) [29]: 100; Post-emerge Herbicidal Activity ABT (phytotoxicity rating) [30]: 100 |
| CC1Oc2cc(F)c(-c3nn(C)c(C(F)(F)F)c3Cl)c3c2N(C1=O)C(C)C(=O)N3 (mixture of isomers) [1-51] | 100 | 100 | 100 | 100 | 98 | 90 | 100 | 100 | 100 | 100 | 85 | 100 | 100 | 100 | 100 | 99 | 100 | 100 | 100 | 80 | Pre-emerge crop damage SOY (phytotoxicity rating) [3, 35]: 65; Post-emerge crop damage SOY (phytotoxicity rating) [9, 36]: 60; Post-emerge crop damage WHEAT (phytotoxicity rating) [12, 36]: 60; Post-emerge crop damage RICE (phytotoxicity rating) [13, 36]: 75; Pre-emerge crop damage RICE (phytotoxicity rating) [14, 35]: 70; Post-emerge crop damage CORN (phytotoxicity rating) [20, 36]: 50; Pre-emerge crop damage CORN (phytotoxicity rating) [21, 35]: 70; Pre-emerge crop damage WHEAT (phytotoxicity rating) [23, 35]: 60; Post-emerge Herbicidal Activity IPH (phytotoxicity rating) [29]: 100; Post-emerge Herbicidal Activity ABT (phytotoxicity rating) [30]: 100 |
